Experimental findings from paper PMC3445516 (PLoS ONE, 2012) are described below.

Like-named read-outs stand apart in the source and are kept apart here.

Assay in all cases: Ambit kinase profiling, competition binding
In assay [1] the target is T1, MUSK (Homo sapiens, UniProt O15146).
T1 construct: purchased Ambit Biosciences (KINOMEscan)
T1 sequence (O15146 24-869): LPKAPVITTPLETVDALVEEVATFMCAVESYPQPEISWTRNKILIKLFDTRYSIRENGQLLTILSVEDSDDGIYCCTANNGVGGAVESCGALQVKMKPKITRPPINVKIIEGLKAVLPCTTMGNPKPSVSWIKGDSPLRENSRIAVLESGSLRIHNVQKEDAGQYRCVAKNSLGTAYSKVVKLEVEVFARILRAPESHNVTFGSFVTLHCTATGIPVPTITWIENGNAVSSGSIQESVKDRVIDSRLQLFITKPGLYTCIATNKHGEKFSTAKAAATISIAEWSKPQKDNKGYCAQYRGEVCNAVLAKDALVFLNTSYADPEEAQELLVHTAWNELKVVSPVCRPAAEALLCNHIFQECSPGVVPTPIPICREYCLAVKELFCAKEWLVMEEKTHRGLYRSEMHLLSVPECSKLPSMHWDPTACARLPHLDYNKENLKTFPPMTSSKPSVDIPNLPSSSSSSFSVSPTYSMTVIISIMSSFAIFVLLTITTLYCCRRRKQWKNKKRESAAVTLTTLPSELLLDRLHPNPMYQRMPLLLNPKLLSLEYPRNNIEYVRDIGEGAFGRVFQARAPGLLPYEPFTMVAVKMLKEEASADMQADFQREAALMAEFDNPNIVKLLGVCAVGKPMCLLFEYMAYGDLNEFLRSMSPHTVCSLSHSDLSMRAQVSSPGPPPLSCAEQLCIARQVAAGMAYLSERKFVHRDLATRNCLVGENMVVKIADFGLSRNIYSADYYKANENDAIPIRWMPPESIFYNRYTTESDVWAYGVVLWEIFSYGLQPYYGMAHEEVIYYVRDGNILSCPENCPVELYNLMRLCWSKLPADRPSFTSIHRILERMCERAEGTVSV
The protocol:
(§1) Also included in the kinase profile are four isoforms of PKC (δ, ε, η, θ) and eight isoforms of CAMKs (CAMKIα, δ, γ; CAMKIIα, β, δ, γ; CAMK4).
(§2) The global kinase profiling experiment was performed by Ambit Biosciences.

In assay [2] the target is T2, CSNK1G3 (Homo sapiens, UniProt Q9Y6M4).
T2 construct: purchased Ambit Biosciences (KINOMEscan)
T2 sequence (Q9Y6M4 whole entry): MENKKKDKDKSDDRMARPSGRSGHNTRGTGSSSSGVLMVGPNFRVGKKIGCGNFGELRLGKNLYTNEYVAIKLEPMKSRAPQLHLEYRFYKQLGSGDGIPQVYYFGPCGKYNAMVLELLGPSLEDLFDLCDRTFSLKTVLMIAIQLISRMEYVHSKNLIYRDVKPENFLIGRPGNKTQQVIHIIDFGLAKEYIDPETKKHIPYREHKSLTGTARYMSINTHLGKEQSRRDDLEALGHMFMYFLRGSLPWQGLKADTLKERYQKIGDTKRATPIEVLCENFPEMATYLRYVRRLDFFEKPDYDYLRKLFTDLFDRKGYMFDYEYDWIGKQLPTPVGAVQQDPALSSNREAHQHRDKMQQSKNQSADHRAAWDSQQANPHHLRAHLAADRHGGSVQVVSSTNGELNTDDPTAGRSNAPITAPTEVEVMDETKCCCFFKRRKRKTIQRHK
Particulars: for % Competition: 10 µM. The protocol:
as §1, §2

The target of assay [3] is T3, MEK4 (Homo sapiens, UniProt P45985).
T3 construct: purchased Ambit Biosciences (KINOMEscan)
T3 sequence (P45985 1-399): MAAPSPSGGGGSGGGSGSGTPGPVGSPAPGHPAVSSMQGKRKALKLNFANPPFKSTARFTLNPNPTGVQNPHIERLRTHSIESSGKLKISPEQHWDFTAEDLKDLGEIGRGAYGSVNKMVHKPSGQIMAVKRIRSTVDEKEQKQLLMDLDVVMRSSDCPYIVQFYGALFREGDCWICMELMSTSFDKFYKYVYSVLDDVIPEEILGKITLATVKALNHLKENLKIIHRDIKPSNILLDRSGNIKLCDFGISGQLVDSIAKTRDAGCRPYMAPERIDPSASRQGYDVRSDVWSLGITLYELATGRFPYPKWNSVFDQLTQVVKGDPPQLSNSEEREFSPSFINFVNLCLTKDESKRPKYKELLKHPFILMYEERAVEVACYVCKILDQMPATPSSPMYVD
The protocol:
as §1, §2

In assay [4] the target is T4, PRKD2 (Homo sapiens, UniProt Q9BZL6).
T4 construct: purchased Ambit Biosciences (KINOMEscan)
T4 sequence (Q9BZL6 1-878): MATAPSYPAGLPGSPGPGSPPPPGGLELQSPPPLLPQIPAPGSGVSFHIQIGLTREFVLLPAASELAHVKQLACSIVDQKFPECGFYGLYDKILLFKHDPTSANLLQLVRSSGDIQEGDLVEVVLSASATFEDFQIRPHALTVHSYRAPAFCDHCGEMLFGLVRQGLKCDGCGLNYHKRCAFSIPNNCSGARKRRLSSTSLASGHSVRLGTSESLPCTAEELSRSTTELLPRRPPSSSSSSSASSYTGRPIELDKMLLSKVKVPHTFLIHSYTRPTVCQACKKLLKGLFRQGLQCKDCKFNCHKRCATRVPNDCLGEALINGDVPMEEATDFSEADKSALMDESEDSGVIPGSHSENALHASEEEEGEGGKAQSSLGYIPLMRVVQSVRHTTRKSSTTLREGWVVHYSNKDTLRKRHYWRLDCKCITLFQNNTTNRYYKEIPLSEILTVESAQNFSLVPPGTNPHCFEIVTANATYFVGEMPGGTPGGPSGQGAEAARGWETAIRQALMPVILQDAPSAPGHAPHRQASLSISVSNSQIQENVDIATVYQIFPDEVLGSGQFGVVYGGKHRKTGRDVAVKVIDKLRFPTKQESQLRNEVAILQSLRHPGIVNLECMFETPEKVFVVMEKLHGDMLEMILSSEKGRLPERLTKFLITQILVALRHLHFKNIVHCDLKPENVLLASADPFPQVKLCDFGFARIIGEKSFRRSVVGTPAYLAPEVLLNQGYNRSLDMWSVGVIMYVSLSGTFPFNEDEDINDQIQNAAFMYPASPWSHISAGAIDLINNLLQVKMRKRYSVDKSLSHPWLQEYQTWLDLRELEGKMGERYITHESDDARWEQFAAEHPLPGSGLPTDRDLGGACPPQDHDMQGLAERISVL
The protocol: as §1, §2

The target of assay [5] is T5, CLK1 (Homo sapiens, UniProt P49759).
T5 construct: purchased Ambit Biosciences (KINOMEscan)
T5 sequence (P49759 whole entry): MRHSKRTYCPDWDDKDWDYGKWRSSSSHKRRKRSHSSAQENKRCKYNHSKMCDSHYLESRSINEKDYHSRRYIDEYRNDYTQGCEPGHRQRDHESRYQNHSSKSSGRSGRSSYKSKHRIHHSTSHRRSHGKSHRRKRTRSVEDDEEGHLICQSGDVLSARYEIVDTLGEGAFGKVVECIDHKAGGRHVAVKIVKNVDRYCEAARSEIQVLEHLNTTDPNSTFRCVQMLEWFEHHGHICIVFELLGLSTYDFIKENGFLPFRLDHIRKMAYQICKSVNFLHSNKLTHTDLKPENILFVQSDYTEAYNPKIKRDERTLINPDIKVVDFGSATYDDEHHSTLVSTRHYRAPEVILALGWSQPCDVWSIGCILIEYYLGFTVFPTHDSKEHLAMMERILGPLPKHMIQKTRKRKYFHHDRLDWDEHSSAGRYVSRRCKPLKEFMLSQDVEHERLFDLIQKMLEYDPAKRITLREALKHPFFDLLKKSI
The protocol: as §1, §2

Assay [6] concerns the target T6, CAMKIIα (Homo sapiens, UniProt Q9UQM7).
T6 construct: purchased Ambit Biosciences (KINOMEscan)
The settings on record: for competition: CAMKIIα, 10 µM. The protocol: as §1, §2

For assay [7], the target named is T7, YANK3 (Homo sapiens, UniProt Q86UX6).
T7 construct: purchased Ambit Biosciences (KINOMEscan)
T7 sequence (Q86UX6 whole entry): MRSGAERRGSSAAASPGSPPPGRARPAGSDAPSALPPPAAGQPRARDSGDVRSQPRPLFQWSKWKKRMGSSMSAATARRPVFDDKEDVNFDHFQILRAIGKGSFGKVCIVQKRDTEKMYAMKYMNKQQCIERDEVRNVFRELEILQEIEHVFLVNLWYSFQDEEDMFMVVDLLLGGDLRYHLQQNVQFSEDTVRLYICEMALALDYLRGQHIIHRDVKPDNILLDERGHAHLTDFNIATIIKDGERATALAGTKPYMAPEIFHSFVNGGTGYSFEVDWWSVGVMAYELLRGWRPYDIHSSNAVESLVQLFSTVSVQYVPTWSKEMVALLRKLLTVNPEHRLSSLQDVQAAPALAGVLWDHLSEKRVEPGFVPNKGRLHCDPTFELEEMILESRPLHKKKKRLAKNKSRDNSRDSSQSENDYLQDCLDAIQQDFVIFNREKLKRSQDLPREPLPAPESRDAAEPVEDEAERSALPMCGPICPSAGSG
The protocol:
as §1, §2

The target in assay [8] is T8, RPS6KA6(Kin.Dom.2-C-terminal) (Homo sapiens, UniProt Q9UK32).
T8 construct: RPS6KA6(Kin.Dom.2-C-terminal); purchased Ambit Biosciences (KINOMEscan)
T8 sequence (Q9UK32 401-745 limits assumed): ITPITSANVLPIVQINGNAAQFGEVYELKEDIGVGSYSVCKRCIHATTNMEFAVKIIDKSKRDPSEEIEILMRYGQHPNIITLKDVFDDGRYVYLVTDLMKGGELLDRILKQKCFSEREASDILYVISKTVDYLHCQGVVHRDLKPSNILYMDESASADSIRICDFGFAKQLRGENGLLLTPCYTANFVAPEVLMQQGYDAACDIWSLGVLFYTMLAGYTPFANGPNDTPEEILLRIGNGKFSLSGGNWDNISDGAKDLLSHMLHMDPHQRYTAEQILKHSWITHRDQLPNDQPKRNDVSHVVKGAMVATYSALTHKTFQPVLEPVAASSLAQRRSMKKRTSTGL
The settings on record: for % Competition: 10 µM. The protocol: as §1, §2

T6 sequence (Q9UQM7 whole entry): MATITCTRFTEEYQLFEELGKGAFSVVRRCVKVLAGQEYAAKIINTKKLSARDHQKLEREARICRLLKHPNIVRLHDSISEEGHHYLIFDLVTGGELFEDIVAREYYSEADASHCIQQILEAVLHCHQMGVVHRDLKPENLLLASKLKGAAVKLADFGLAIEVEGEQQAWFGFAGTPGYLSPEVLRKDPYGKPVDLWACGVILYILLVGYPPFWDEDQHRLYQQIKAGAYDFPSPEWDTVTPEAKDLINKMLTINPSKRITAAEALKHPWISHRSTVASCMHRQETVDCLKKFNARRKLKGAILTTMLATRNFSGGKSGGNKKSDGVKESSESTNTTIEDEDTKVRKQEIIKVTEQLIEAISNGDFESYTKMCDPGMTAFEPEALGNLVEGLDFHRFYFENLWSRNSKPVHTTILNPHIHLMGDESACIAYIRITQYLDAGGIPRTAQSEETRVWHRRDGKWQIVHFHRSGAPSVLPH

In the case of `Fc1ccc(-c2c(-c3ccncc3)[nH]c3nccnc23)cc1` [Compound 122], the inhibition at 10 µM was determined as 94% in assay [1] (MUSK, 10 µM, read-out: % Competition); 87% in assay [3] (MEK4, 10 µM, read-out: % Competition); 98% in assay [4] (PRKD2 (PKD2), 10 µM, read-out: % Competition); 97% in assay [5] (CLK1, 10 µM, read-out: % Competition); 67% in assay [7] (YANK3, 10 µM, read-out: % Competition). The “% Competition” value in assay [2] is 86%; in assay [8], 98%. In assay [6], the competition is under 50%.
As for `CC(O)CNc1cc(-c2[nH]c3cccnc3c2-c2ccc(F)cc2)ccn1` (stereo not drawn) [Compound 140], the inhibition at 10 µM is under 50% in assay [1] (read-out: % Competition); under 50% in assay [3] (read-out: % Competition); 99% in assay [4] (read-out: % Competition); under 50% in assay [5] (read-out: % Competition); under 50% in assay [7] (read-out: % Competition). The “% Competition” value was found to be 91% in assay [2] and 96% in assay [8]. This compound also yielded a competition in assay [6] of under 50%.
Regarding `Fc1ccc(-c2c(-c3ccncc3)[nH]c3nccnc23)cc1` [RO1155697-000-005], the inhibition at 10 µM in assay [1] (MUSK, compound concentration 10 uM, read-out: Percent Competition) is 94%; in assay [3] (MEK4, compound concentration 10 uM, read-out: Percent Competition), 87%; in assay [4] (PRKD2, compound concentration 10 uM, read-out: Percent Competition), 98%; in assay [5] (CLK1, compound concentration 10 uM, read-out: Percent Competition), 97%; in assay [6] (CAMK2A, compound concentration 10 uM, read-out: Percent Competition), under 50%; in assay [7] (YANK3, compound concentration 10 uM, read-out: Percent Competition) it was 67%. Moreover, the results for the “Percent Competition” value in assay [2] (compound concentration 10 uM) and in assay [8] (compound concentration 10 uM) were 86% and 98%, respectively.
